Measured values from patent publication US20230250083A1, “CRYSTALS” (NIPPON SHINYAKU CO., LTD., priority 2017, published 2023).

Legend:
Type in all cases: physicochemical
[1] = Solvent-mediated transformation test; settings: for Crystal form after 1 day / Crystal form after 5 days: stirred at room temperature
Protocol: Each solvent was added to the Form-I crystal of the compound A, and the mixture was stirred at room temperature for 24 hours, and then, insolubles was filtered to prepare a saturated solution. Mixed crystals (about 10 mg) in which the Form-I crystal and the Form-II crystal were mixed at 1:1 were added to each solution, and the resultant mixture was stirred at room temperature for 5 days. Formed crystals were collected through filtration, and the crystal form thereof was confirmed.

[2] = Stability test (sealed glass bottle, 90° C.)
Protocol: The Form-II crystal of the compound A was put in a glass bottle, and the glass bottle was tightly sealed and stored at 90° C. The sample was taken out after 1 day, 3 days, and 7 days, and was dissolved in methanol at a concentration of 1 mg/mL. Each solution was subjected to measurement of analogs by HPLC. As for the crystals after 7 days, the crystal form was confirmed.

[3] = Crystallization experiments using various solvents, overall outcome; settings: operation procedures 1 to 4, Tables 1 to 3
Protocol: Each of various solvents was added to the Form-I crystal of the present invention (several mg), crystals of the compound A were precipitated according to the following operation procedures, and the crystal form of the precipitated crystals was confirmed. The results of the operation procedures 1 to 3 are shown in Table 1 and Table 2, and the results of the operation procedure 4 are shown in Table 3. The symbol “-” in Table 1 to Table 3 means that no precipitate was obtained.

[4] = acetone:water 20:80 saturated with Form-I
[5] = acetonitrile saturated with Form-I
[6] = 90° C., after 1 day, tightly sealed glass bottle
[7] = 90° C., after 3 days, tightly sealed glass bottle
[8] = 90° C., after 7 days, tightly sealed glass bottle

C[C@H](Nc1cc(-c2cnn(C)c2)cc(Nc2cnccn2)n1)c1ccc(F)cc1.O=C(O)/C=C\C(=O)O [Form-I + Form-II (1:1)]
Crystal form after 1 day [1, 4]: Form-I
Crystal form after 5 days [1, 4]: Form-I
Crystal form after 1 day [1, 5]: Form-I
Crystal form after 5 days [1, 5]: Form-I
crystal form transformation of mixed crystals ([1]; after 5 days, in acetonitrile, ethyl acetate, and water-containing acetone at room temperature): all transformed to the Form-I crystal
Crystal form after 5 days ([1]; ethyl acetate saturated with Form-I): Form-I

C[C@H](Nc1cc(-c2cnn(C)c2)cc(Nc2cnccn2)n1)c1ccc(F)cc1.O=C(O)/C=C\C(=O)O [Form-II]
Appearance [2, 6]: no change
HPLC area (%) [2, 6]: 99.7%
Appearance [2, 7]: no change
HPLC area (%) [2, 7]: 99.8%
Appearance [2, 8]: no change
Crystal form after 7 days [2, 8]: Form-II
HPLC area (%) [2, 8]: 99.6%
Appearance ([2]; Before storage): pale yellow crystal
HPLC area (%) ([2]; Before storage): 99.7%
crystallization from various solvents (which form crystallizes) ([3]; listed as Form-II crystal of the present invention): crystallized only in water-containing systems

C[C@H](Nc1cc(-c2cnn(C)c2)cc(Nc2cnccn2)n1)c1ccc(F)cc1.O=C(O)/C=C\C(=O)O [Form-I crystal of the present invention]
thermodynamic stability in solvent ([1]; acetonitrile, ethyl acetate, water-containing acetone at room temperature): thermodynamically stable
crystallization from various solvents (which form crystallizes) [3]: preferentially crystallized
